{"source": "patent US8460669B2", "about": "“Compositions and methods for identifying response targets and treating flavivirus infection responses” (Academia Sinica, priority 2005, dated 2013)", "key": {"[1]": {"biological_target": "T1, DC-SIGN (Homo sapiens, UniProt Q9NNX6)", "T1 construct": "The extracellular domains of lectin receptors, TREMs and TLTs were cloned by the reverse-transcriptase polymerase chain reaction (RT-PCR); made in house; host or cells: 293-F (FreeStyle 293) cells", "T1 sequence (Q9NNX6 59-404 limits assumed)": "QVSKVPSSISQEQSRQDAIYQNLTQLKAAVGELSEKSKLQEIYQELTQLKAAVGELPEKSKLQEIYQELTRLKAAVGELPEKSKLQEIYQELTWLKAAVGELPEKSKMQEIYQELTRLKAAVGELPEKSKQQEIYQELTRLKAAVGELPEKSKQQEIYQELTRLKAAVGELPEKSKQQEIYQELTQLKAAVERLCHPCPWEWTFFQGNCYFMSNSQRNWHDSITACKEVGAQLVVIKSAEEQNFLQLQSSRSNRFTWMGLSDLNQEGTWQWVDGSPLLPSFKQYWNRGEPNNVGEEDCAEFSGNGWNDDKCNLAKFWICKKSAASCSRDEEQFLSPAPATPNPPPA", "assay": "Sugar competition EIA, Fc.DC-SIGN binding to GLPS-F3", "details": "sugar 1 mg/ml", "protocol": "(§1) The interaction between GLPS-F3 and receptor.Fc was then tested. Unbiotinylated GLPS-F3 was immobilized at 100 ng/well as described above, and 100 μL receptor.Fc fusion protein (1 μg/ml in 2 mM MgCl2/2 mM CaCl2/1% BSA/TBST) was added into each well and incubated for 1 hour at room temperature. After washing with TBST, wells were incubated with peroxidase-conjugated goat anti-human IgG Ab (1:5000 dilution, Jackson ImmunoResearch Laboratories) in blocking buffer at room temperature for 30 min. Wells were incubated with 100 μL TMB substrate for 15 min after TBST washing and read at 450 nm in a Fusion plate reader (Perkin Elmer). The results were normalized with respect to Fc.Dectin-1 binding (Dectin-1 is a known lectin receptor that binds to β-1,3-glucan which is the backbone found in GLPS-F3). FIG. 6B depicts in graphical form the affinity of each receptor for GLPS-F3 relative to Dectin-1. […] There was also weaker but positive GLPS-F3 binding ability (25-50% binding intensity compared to Fc.dectin-1) found in Fc.NKG2D, Fc.MINCLE, Fc.mKCR, DCAL1.Fc, DEC205.Fc, Endo180.Fc and NKp30(NCR3).Fc.\n(§2) To understand the interaction of GLPS-F3 with specific innate immunity receptors, the polysaccharides mannan and β-glucan and the monosaccharides D-mannose (Man), D-glucose (Glc), N-acetyl-glucosamine (GlcNAc), D-galactose (Gal), N-acetyl-galactosamine (GalNAc), L-fucose (Fuc) and sialic acid, were used in a competition assay. […] The assays were carried out as in Example 9, with the addition of 1 mg/ml of each polysaccharide or monosaccharide."}, "[2]": {"biological_target": "T2, MMR.Fc (Homo sapiens, UniProt P22897)", "T2 construct": "The extracellular domains of lectin receptors, TREMs and TLTs were cloned by the reverse-transcriptase polymerase chain reaction (RT-PCR); made in house; host or cells: 293-F (FreeStyle 293) cells", "T2 sequence (P22897 19-1389 limits assumed)": "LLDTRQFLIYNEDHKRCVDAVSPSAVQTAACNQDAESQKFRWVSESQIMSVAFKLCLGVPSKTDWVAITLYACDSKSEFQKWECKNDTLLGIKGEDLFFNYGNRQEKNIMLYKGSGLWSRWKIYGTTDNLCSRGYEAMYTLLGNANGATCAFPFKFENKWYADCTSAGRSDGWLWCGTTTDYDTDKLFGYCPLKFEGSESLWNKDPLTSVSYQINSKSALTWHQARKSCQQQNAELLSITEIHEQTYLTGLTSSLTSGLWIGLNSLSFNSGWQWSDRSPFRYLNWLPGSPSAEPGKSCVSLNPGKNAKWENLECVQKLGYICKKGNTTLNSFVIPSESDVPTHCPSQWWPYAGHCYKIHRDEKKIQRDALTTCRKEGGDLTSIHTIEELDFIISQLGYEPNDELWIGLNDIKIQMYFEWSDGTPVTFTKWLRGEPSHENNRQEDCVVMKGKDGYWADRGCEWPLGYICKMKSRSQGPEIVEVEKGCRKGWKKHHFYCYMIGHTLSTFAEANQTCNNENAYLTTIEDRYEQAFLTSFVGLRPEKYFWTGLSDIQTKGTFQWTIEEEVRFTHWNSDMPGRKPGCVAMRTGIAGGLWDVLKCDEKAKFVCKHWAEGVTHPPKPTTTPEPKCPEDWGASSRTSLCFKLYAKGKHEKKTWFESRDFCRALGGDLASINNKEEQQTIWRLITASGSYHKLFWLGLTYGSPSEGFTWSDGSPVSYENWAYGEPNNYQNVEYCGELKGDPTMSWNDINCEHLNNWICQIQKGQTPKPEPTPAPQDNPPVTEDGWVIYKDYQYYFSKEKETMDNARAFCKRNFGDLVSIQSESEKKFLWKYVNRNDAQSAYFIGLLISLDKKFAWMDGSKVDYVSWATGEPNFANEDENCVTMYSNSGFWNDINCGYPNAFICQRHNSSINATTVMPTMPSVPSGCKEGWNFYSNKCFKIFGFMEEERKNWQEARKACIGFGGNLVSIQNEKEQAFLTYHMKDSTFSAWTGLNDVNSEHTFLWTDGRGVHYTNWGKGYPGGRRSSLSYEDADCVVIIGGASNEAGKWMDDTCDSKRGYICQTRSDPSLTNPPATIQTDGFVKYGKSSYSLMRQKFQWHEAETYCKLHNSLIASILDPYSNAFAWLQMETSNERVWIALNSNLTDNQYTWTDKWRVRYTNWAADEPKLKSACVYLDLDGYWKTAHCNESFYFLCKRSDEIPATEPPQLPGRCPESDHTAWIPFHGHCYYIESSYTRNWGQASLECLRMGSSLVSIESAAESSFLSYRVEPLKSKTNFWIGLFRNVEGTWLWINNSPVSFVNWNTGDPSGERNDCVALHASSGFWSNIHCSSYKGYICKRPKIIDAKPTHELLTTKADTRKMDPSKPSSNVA", "assay": "Sugar competition EIA, MMR.Fc binding to GLPS-F3", "details": "sugar 1 mg/ml", "protocol": "as §1, §2"}, "[3]": {"biological_target": "T3, Dectin-1.Fc (Homo sapiens, UniProt Q9BXN2)", "T3 construct": "The extracellular domains of lectin receptors, TREMs and TLTs were cloned by the reverse-transcriptase polymerase chain reaction (RT-PCR); made in house; host or cells: 293-F (FreeStyle 293) cells", "T3 sequence (Q9BXN2 66-247 limits assumed)": "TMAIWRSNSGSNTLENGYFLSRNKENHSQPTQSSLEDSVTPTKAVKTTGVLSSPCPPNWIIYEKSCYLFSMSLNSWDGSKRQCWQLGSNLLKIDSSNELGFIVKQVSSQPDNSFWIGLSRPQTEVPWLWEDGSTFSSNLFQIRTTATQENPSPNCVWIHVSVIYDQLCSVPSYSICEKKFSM", "assay": "Immunosorbent dot binding assay with Dectin-1.Fc", "details": "competitor 0.1 μg-1000 μg, or EDTA 10 mM in TBST"}, "[4]": {"biological_target": "T4, TLR4.Fc (Homo sapiens, UniProt O00206)", "T4 construct": "The extracellular domains of several innate immunity receptors from immune cells were cloned by reverse-transcription polymerase chain reaction (RT-PCR); made in house; host or cells: 293-F (FreeStyle 293) cells", "T4 sequence (O00206 24-631 limits assumed)": "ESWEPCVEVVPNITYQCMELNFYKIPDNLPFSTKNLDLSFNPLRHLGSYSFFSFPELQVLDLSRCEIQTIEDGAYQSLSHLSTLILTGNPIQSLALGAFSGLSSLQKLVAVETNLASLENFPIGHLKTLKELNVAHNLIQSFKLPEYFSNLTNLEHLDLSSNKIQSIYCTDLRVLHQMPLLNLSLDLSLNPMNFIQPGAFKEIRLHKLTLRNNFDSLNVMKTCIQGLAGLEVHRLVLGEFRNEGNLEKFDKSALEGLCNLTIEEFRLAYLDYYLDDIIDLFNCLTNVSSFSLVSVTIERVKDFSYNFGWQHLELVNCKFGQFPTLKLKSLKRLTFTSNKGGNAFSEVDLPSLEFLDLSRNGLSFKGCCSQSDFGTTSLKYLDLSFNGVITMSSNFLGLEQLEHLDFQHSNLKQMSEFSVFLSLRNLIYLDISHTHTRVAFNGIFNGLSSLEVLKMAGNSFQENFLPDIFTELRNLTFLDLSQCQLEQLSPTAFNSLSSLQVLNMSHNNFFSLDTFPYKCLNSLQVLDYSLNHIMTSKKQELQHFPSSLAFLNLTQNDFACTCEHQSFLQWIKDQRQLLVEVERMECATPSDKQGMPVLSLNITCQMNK", "assay": "Sugar competition EIA, TLR4.Fc binding to GLPS-F3", "details": "sugar 1 mg/ml", "protocol": "as §1, §2"}}, "data": [{"smiles": "O=C[C@H](O)[C@@H](O)[C@H](O)[C@H](O)CO", "note": "[Glc, D-glucose]", "values": [{"measurement": "inhibition of binding of Fc.DC-SIGN to GLPS-F3", "setting": "[1]", "value": 45, "unit": "%"}, {"measurement": "inhibition of interaction between GLPS-F3 and MMR.Fc", "setting": "[2]", "value": 45, "unit": "%"}, {"measurement": "inhibition of the interaction between Dectin-1.Fc and F3", "setting": "[3]", "value": "not"}, {"measurement": "Percentage of binding of TLR4.Fc to GLPS-F3 relative to binding in absence of sugar competitor", "setting": "[4]", "value": "101 ± 4.7", "unit": "%"}]}]}
